Consider seven compounds from article PMC10779950, “Binding Free Energy Calculation Based on the Fragment Molecular Orbital Method and Its Application in Designing Novel SHP-2 Allosteric Inhibitors” (International Journal of Molecular Sciences, 2024).

Where only a bound is given, the exact number is not on record here.

For experiment [1], the target named is T1, SHP2^WT (1–593) (Homo sapiens, UniProt Q06124).
T1 construct: made in house; host or cells: E. coli BL21 Star (DE3), pET30 vector
T1 sequence (Q06124 1-593): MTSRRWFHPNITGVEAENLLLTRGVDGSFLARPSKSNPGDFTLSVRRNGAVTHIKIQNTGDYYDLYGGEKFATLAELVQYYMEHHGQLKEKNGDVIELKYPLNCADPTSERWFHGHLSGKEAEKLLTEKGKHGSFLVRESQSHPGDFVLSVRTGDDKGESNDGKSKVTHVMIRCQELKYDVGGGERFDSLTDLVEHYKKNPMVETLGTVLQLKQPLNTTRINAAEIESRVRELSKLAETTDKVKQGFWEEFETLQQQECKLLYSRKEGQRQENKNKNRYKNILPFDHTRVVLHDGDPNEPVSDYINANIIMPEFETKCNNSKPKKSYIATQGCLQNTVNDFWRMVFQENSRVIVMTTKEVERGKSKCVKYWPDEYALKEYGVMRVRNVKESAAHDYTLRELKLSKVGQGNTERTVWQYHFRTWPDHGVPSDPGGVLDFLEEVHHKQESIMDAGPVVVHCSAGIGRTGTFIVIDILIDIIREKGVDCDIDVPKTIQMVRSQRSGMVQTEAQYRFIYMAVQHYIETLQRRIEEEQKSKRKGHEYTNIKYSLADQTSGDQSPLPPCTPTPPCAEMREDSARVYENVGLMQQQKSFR
In words: SHP-2 prompt fluorescence phosphatase assay (DiFMUP), SHP2^WT. The format is biochemical. The conditions noted are these: for IC50: SHP2^WT, DiFMUP substrate, averages of three independent experiments, read-out: SHP-2 IC50; for ΔGexp: converted from IC50 with ΔGexp ≈ kBTlog IC50; for inhibitory activity against SHP-2 (in words): Figure S4, DIFMUP substrate, mean ± SD (n = 3). Here is the method:
(§1) Briefly, the constructs were transformed into BL21 Star^TM (DE3) cells and cultured at 37 °C for 3~4 h. Subsequently, the cells with high expression of SHP2 protein were harvested after being induced by IPTG and grown overnight at 18 °C. Cell pellets were resuspended in lysis buffer (25 mM imidazole, 50 mM Tris−HCl, 500 mM NaCl, 2.5 mM MgCl2, 1 mM tris(2-carboxyethyl)phosphine (TCEP), 1 μg/mL DNase1, and complete EDTA-free protease inhibitor) and lysed using Low Temperature Ultrahigh Pressure Continuous Flow Cell Disrupter (JNBIO), followed by ultracentrifugation. The supernatant was collected. Then, the SHP2 was purified from the collected supernatant by using HisTrap HP chelation column, TEV protease, and HiTrap Q FastFlow column.
(§2) Then, the mixture was then incubated at 25 °C for 60 min. To initiate the reaction, the surrogate substrate DiFMUP (Invitrogen, cat. no. D6567, Shuzhou, China, 200 μM) was added and incubated at 25 °C for another 30 min. […] Fluorescence signal was detected using a microplate reader (Bio-Tek, Shanghai, China, Synergy2) at Ex/Em = 340/450 nm. Using control-based normalization, normalized IC50 regression curves were fitted to inhibitor dose response curves.

Experiment [2] has as its system c-Met. On the set-up: method as in earlier work. The note with it: FEP+ predicted ΔG from the benchmark; cited from earlier work.
The subject of experiment [3] is c-Met. On the set-up: method as in earlier work. The conditions noted are these: Schrödinger FEP+ benchmark; cited from earlier work.
In experiment [4] the test system is SYK. The note with it: experimental binding free energy, ref Schrödinger FEP+ benchmark; cited from earlier work.
For experiment [5], the system named is SYK. Details: method as in Schrödinger FEP+ benchmark. The conditions noted are these: FEP+ predicted binding free energy, ref Schrödinger FEP+ benchmark; cited from earlier work.
Experiment [6] has as its system THR-β. In words: Experimental THR-β activity of agonists taken from Hu et al. It is filed as biochemical. The conditions noted are these: Table S4, converted from the experimental value.
Excerpt: In the initial phase of our investigation, we conducted a retrospective evaluation of FMOScore’s performance concerning thyroid hormone receptor β (THR-β) agonists, using a set of 18 compounds taken from the work of Hu et al. [65]
In experiment [7] the test system is HIF-2α. The conditions noted are these: experimental binding free energy, ref Schrödinger FEP+ benchmark; cited from earlier work.
The target in experiment [8] is T2, SHP2^PTP (237–529) (Homo sapiens, UniProt Q06124).
T2 construct: made in house; host or cells: E. coli BL21 Star (DE3), pET30 vector
T2 sequence (Q06124 237-529): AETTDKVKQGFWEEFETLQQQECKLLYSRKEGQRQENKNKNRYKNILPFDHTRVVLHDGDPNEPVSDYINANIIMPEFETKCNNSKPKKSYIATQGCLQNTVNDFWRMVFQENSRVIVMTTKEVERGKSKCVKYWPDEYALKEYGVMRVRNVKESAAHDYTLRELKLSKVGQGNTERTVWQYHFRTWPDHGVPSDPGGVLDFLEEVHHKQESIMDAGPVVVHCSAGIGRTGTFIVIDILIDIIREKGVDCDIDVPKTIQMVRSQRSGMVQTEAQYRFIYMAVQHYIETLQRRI
In words: SHP-2 prompt fluorescence phosphatase assay (DiFMUP), SHP2^PTP. It is filed as biochemical. The note with it: catalytic PTP domain construct. Here is the method:
as §1, §2

For experiment [9], the system named is SHP-2. The conditions noted are these: SHP-2 ligand set; experimental binding free energy; ref Schrödinger FEP+ benchmark; cited from earlier work.
Experiment [10] has as its system TNKS2. The conditions noted are these: experimental binding free energy, ref Schrödinger FEP+ benchmark; cited from earlier work.
Experiment [11] relates to TNKS2. On the set-up: method as in Schrödinger FEP+ benchmark. The note with it: FEP+ predicted binding free energy, ref Schrödinger FEP+ benchmark; cited from earlier work.

As usually defined, the IC50 is the midpoint of a concentration-inhibition curve. In the case of `Nc1cc(NC2CCNC2)cnc1-c1cccc(Cl)c1Cl` (stereo not shown) [Compound 3, 2-(2,3-dichlorophenyl)-N5-(pyrrolidin-3-yl) pyridine-3,5-diamine], the IC50 in experiment [1] turned out to be 5.17 ± 1.08 µM. For the same compound, the results for the ΔGexp in experiment [1] and in experiment [6] were -7.207 kcal/mol and -8.435 kcal/mol, respectively. The FEP in experiment [2] is listed as -5.97 kcal/mol; in [5], -6.76 kcal/mol. For the same compound, the “Exp. ΔG” value is recorded as -7.46 kcal/mol in [3] and -8.64 kcal/mol in experiment [4].
Take `CC1(N)CCN(c2cnc(-c3cccc(Cl)c3Cl)c(N)c2)CC1` [Compound 1, 5-(4-amino-4-methylpiperidin-1-yl)-2-(2,3-dichlorophenyl) pyridin-3-amine]: the “inhibitory activity against SHP-2 (in words)” value in experiment [1] is given as “potent inhibitory activity”. For the same compound, the concentration for half-maximal inhibition (IC50) was 1.49 ± 0.024 µM in [1] and more than 100 µM in experiment [8]. In addition, the ΔGexp in experiment [1] was -7.943 kcal/mol; in experiment [6], -8.186 kcal/mol. Also, the “fold decrease of biochemical inhibition compared to SHP099” value in experiment [1] (ratio of IC50) was 16 fold. Further, the “Exp. ΔG” value is listed as -11.32 kcal/mol in [7], -9.14 kcal/mol in [3] and -12.39 kcal/mol in [4]. In addition, the FEP in experiment [2] is given as -9.88 kcal/mol; in experiment [5], -12.21 kcal/mol.
As for `O=[N+]([O-])c1cc(Br)cnc1Sc1cccc(Cl)c1Cl` [Compound S4], in [9], the “Exp. ΔG” value is -5.82 kcal/mol.
As to `CC1(N)CCN(c2cnc(Sc3cccc(Cl)c3Cl)c(N)c2)CC1` [Compound 7, 5-(4-amino-4-methylpiperidin-1-yl)-2-((2,3-dichlorophenyl)thio)pyridin-3-amine], the “Exp. ΔG” value in experiment [10] is given as -8.4 kcal/mol; in [3] it was -8.73 kcal/mol; in experiment [4], -10.79 kcal/mol. In experiment [1], the IC50 worked out at 11.3 ± 1.19 µM. Also, the ΔGexp is -6.747 kcal/mol in [1] and -7.406 kcal/mol in [6]. For the same compound, the FEP in experiment [11] is -9.01 kcal/mol; in experiment [2], -9.19 kcal/mol; in [5], -10.29 kcal/mol.
For `Nc1cc(NCC2CCCNC2)cnc1-c1cccc(Cl)c1Cl` (stereo not shown) [Compound 2, 2-(2,3-dichlorophenyl)-N5-(piperidin-3-ylmethyl) pyridine-3,5-diamine], the IC50 in experiment [1] was found to be 15.6 ± 1.49 µM. Further, the ΔGexp is -6.553 kcal/mol in [1] and -6.110 kcal/mol in [6]. The “fold reduced inhibition on morphing the piperazine ring (relative to compound 1)” value in experiment [1] (ratio of IC50) came out at 10 fold. Also, the FEP was -11.93 kcal/mol in [2] and -10.49 kcal/mol in experiment [5]. The “Exp. ΔG” value in experiment [3] is -11.25 kcal/mol; in experiment [4], -11.01 kcal/mol.
Turning to `Nc1cc(N2CCC3(CCCC3N)CC2)cnc1Sc1cccc(Cl)c1Cl` (stereo not shown) [Compound 8, 8-(5-amino-6-((2,3-dichlorophenyl)thio)pyridin-3-yl)-8-azaspiro[4.5]decan-1-amine], in experiment [1], the “inhibitory activity against SHP-2 (in words)” value is reported as “potent inhibitory activity”. For the same compound, the IC50 in experiment [1] came out at 2.29 ± 0.66 µM. The ΔGexp in experiment [1] was -7.690 kcal/mol; in experiment [6], -8.072 kcal/mol. Further, the FEP in [2] is -9.12 kcal/mol; in experiment [5], -10.6 kcal/mol. Further, the “Exp. ΔG” value in experiment [3] was -10.06 kcal/mol; in experiment [4], -9.78 kcal/mol.
Take `Nc1cc(NC2CCNCC2)cnc1-c1cccc(Cl)c1Cl` [Compound 4, 2-(2,3-dichlorophenyl)-N5-(piperidin-4-yl) pyridine-3,5-diamine]: the IC50 in experiment [1] was 23.5 ± 2.86 µM. Also, the figures for the ΔGexp in experiment [1] and in experiment [6] were -6.311 kcal/mol and -5.453 kcal/mol, respectively. In addition, in [1] (ratio of IC50), the “fold reduced inhibition on morphing the piperazine ring (relative to compound 1)” value was determined as 15 fold. Besides, the FEP is reported as -7.41 kcal/mol in experiment [2] and -9.49 kcal/mol in experiment [5]. Moreover, the results for the “Exp. ΔG” value in [3] and in experiment [4] were -8.9 kcal/mol and -11.36 kcal/mol, respectively.
